Residues, ends and D or L forms follow the SMILES beside them. *: point of attachment. CH2Cl = ClC*
Legend:
[1] = system: syngeneic tumors derived from fibrosarcoma, lymphoma, melanoma, and mastocytoma cell lines; settings: oral administration to mice; cited from earlier work
tumor cells = settings: cited from earlier work
FAP [2] = molecular target: T1, FAP (Homo sapiens, UniProt Q12884); settings: FIG. 13
T1 sequence (Q12884 38-760): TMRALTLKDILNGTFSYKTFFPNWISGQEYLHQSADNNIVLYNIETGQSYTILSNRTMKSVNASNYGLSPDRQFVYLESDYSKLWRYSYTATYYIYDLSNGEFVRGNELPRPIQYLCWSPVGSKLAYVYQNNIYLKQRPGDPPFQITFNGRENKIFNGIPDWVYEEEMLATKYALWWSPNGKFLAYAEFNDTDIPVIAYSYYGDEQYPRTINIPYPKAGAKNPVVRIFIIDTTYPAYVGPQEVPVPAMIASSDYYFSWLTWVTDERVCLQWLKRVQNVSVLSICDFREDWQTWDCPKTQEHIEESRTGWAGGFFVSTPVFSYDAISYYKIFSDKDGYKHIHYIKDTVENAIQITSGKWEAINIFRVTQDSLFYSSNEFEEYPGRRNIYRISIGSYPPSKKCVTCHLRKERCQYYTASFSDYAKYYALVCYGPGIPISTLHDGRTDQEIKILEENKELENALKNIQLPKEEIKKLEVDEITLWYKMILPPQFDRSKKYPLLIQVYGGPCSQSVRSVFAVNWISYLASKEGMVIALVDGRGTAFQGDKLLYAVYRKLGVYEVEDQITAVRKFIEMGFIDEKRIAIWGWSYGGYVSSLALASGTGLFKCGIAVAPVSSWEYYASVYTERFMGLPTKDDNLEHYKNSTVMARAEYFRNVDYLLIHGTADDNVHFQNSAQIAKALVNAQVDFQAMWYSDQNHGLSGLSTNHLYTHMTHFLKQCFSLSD

DPP-4 [3] = molecular target: T2, DPP-4 (Homo sapiens, UniProt P27487); settings: FIG. 13
FAP [4] = molecular target: T1, FAP; assay: Inhibition of FAP by N-blocked boroPro compounds (progress curves); assay type: biochemical; parameters: FAP (amino acids 38-760); FLAG (N); made in house; host or cells: 293 cells (secreted, purified from serum-free conditioned media); settings: cleavage of substrate L-Ala-Pro-AFC
Procedure: (§1) The steady states of product formation in the absence (V0) and presence of inhibitor (Vi) were used to calculate apparent inhibition constants (Kiapp) by plotting V0/Vi−1 against inhibitor concentration.
(§2) Briefly, proteases were added to a reaction mixture containing inhibitor and substrate (Ac-Ala-AMC for APH, Z-Gly-Pro-AMC for POP, and Ala-Pro-AFC for all others) in assay buffer at 23° C. Protease activity was followed continuously as described above to monitor time-dependent inhibition. Data were plotted as V0/Vi−1 versus [I], where V0 is the rate if substrate hydrolysis in the absence of inhibitor, Vi is the steady state rate of substrate hydrolysis in the presence of inhibitor and [I] is the concentration of Ac-Gly-BoroPro.
(§3) KI values for inhibition of proteases by 5 were determined using the method of progress curves. Briefly, proteases (10-100 nM) were added to a reaction mixture containing inhibitor 5 (0-10 μM) and substrate AP-AFC in assay buffer at 23° C. […] Data were plotted as V0/Vi−1 versus [I], where V0 is the rate if substrate hydrolysis in the absence of inhibitor, Vi is the steady state rate of substrate hydrolysis in the presence of inhibitor and [I] is the concentration of 5. […] Ki, the true equilibrium inhibition constant was determined according to the following relationship: Ki=Kobs/(1+[S]/Km), where [S] is the concentration of substrate used in the assay and Km is the Michaelis constant for substrate cleavage.

DPP-4 [5] = molecular target: T2, DPP-4; assay: Inhibition of DPP-4 by N-blocked boroPro compounds (progress curves); assay type: biochemical; parameters: DPP-4 (amino acids 39-766); FLAG (N); made in house; host or cells: 293 cells (secreted, purified from serum-free conditioned media); settings: for FAP/DPP-4 Selectivity: DPP-4 Ki relative to FAP Ki; for Ki: cleavage of substrate L-Ala-Pro-AFC
Procedure: as §1, §2, §3

FAP [6] = molecular target: T1, FAP; assay: Relative cleavage rates of coumarin (AMCC) dipeptide substrates by FAP; assay type: biochemical; parameters: FAP (amino acids 38-760); FLAG (N); made in house; host or cells: 293 cells (secreted, purified from serum-free conditioned media); settings: P2-Pro-AMCC substrates; hydrolysis rates normalized to Gly-Pro-AMCC
Procedure: (§4) The relative cleavage rates of a variety of N-blocked, C-terminal coumarin (AMCC) Gly-Pro dipeptide substrates 6 were measured. The rates were normalized to N-unblocked Gly-Pro-AMCC for FAP and DPP-4.
(§5) To examine whether FAP could cleave other N-substituted-Gly-Pro-based substrates, N-methyl-, formyl-, succinyl-, benzyloxycarbonyl-(Z-) and biotinyl-Gly-Pro-AMCC substrates 6 were synthesized and reacted with FAP (37 nM) and DPP-4 (6.8 nM).
(§6) Amino-terminus P2 was varied with the L-amino acids: alanine, aspartic acid, glutamic acid, phenylalanine, glycine, histidine, isoleucine, lysine, leucine, methionine, asparagine, proline, glutamine, arginine, serine, threonine, valine, tryptophan, and tyrosine (from left). AMCC=2-(7-amino-4-methyl-2-oxo-2H-chromen-3-yl)acetamide. For both enzymes, the amino acid adjacent in the model dipeptide substrate had little effect where the amino-terminus was unblocked. Hydrolysis rates of other P2-Pro-AMCC substrates by FAP and DPP-4 relative to Gly-Pro-AMCC include the following in Table 6:
(§7) Protease Assays—Protease activity was monitored continuously using a SpectraMax M2 microplate reader (Molecular Devices Corp., Sunnyvale Calif.) in the kinetic mode. Assays were conducted at 23° C. in 50 mM Tris (pH 7.4), 100 mM NaCl, 1 mM EDTA. The excitation/emission wavelengths for the different fluorogenic substrates were 360/460 nm (AMC), 400/505 nm (AFC), 340/425 nm (MNA), 340/510 nm (EDANS), and 337/425 nm (Abs). Standard curves of the appropriate fluorescent product versus concentration were used to convert relative fluorescence units to nmol of product produced. Substrates in the X-Pro-AMC library were used in rate assays at 5 μM final concentration. […] The kinetic parameters were calculated from Michaelis-Menten plots (V0 versus [S]) with nonlinear regression analysis using GraphPad software. kcat values were calculated under the assumption that each protease was 100% active.

FAP [7] = molecular target: T1, FAP; assay: Inhibition of FAP activity against Ala-Pro-AFC by P2-Pro-AMCC compounds; assay type: biochemical; parameters: FAP (amino acids 38-760); FLAG (N); made in house; host or cells: 293 cells (secreted, purified from serum-free conditioned media)
Procedure: (§8) Inhibition of FAP and DPP-4 activity against Ala-Pro-AFC by P2-Pro-AMCC compounds was measured at various concentration of the P2-Pro-AMCC compounds in Table 7.

DPP-4 [8] = molecular target: T2, DPP-4; assay: Relative cleavage rates of coumarin (AMCC) dipeptide substrates by DPP-4; assay type: biochemical; parameters: DPP-4 (amino acids 39-766); FLAG (N); made in house; host or cells: 293 cells (secreted, purified from serum-free conditioned media); settings: P2-Pro-AMCC substrates; hydrolysis rates normalized to Gly-Pro-AMCC
Procedure: as §4, §5, §6, §7

DPP-4 [9] = molecular target: T2, DPP-4; assay: Inhibition of DPP-4 activity against Ala-Pro-AFC by P2-Pro-AMCC compounds; assay type: biochemical; parameters: DPP-4 (amino acids 39-766); FLAG (N); made in house; host or cells: 293 cells (secreted, purified from serum-free conditioned media)
Procedure: as §8

FAP [10] = molecular target: T1, FAP; assay: Inhibition of recombinant FAP by cmk-based irreversible inhibitors; assay type: biochemical; parameters: FAP (amino acids 38-760); FLAG (N); made in house; host or cells: 293 cells (secreted, purified from serum-free conditioned media); settings: for inhibitor concentration-dependent inhibition of FAP: 10, 100, and 500 μM inhibitor, residual activity against L-Ala-Pro-AFC; for time course of FAP activity in the presence of inhibitor: substrate L-Ala-Pro-AFC
Procedure: (§9) The cleavage activities of FAP and DPP-4 in the presence of an irreversible dipeptide inhibitor was measured (FIGS. 9-12). In each time course study (FIGS. 9-15), the protease (FAP, DPP) and the inhibitor compound were incubated together for 4 hours, then residual activity was assayed against substrate.
(§10) The cleavage activities of FAP and DPP-4 in the presence of a tetrapeptide irreversible inhibitor was measured.
(§11) Acetyl-gly-pro-chloromethyl ketone and acetyl-thre-ser-gly-pro-cmk were custom synthesized at Anaspec (San Jose, Calif.). Recombinant FAP (160 nM) and DPP-4 (160 nM) were reacted with Ac-GP-cmk or TSGP-cmk (0-500 μM) at 37° C. in 50 mM Tris-HCl, pH 7.5 containing 100 mM NaCl, and 0.1 mg/ml bovine serum albumin (assay buffer). After 6 hours, residual protease activity against AP-AFC (50 μM) was measured using a Molecular Devices M2 plate reader in the kinetic mode (excitation 400 nm, emission 505 nm). Inhibition data are graphed as residual activity relative to protease activity in the absence of inhibitor.
(§12) Inhibition of FAP and DPP-4 by the cmk-based inhibitors was studied under pseudo-first order conditions. Proteases (100 nM) were reacted with 10 μM inhibitor in assay buffer at 37° C. for increasing amounts of time. Residual protease activity was then measured using AP-AFC (50 μM) as a substrate. Pseudo-first order rate constants were calculated from the slope of plots of Ln (residual protease activity) versus time. Apparent association constants (kass) for inhibition were determined from the relationship kass=kobs/[I], where kobs is the pseudo-first order rate constant and [I] is the inhibitor concentration.

DPP-4 [11] = molecular target: T2, DPP-4; assay: Inhibition of recombinant DPP-4 by cmk-based irreversible inhibitors; assay type: biochemical; parameters: DPP-4 (amino acids 39-766); FLAG (N); made in house; host or cells: 293 cells (secreted, purified from serum-free conditioned media); settings: for inhibition of DPP-4: 10, 100, and 500 μM inhibitor, residual activity against L-Ala-Pro-AFC; for time course of DPP-4 activity in the presence of inhibitor: substrate L-Ala-Pro-AFC
Procedure: as §9, §10, §11, §12

T2 sequence (P27487 39-766): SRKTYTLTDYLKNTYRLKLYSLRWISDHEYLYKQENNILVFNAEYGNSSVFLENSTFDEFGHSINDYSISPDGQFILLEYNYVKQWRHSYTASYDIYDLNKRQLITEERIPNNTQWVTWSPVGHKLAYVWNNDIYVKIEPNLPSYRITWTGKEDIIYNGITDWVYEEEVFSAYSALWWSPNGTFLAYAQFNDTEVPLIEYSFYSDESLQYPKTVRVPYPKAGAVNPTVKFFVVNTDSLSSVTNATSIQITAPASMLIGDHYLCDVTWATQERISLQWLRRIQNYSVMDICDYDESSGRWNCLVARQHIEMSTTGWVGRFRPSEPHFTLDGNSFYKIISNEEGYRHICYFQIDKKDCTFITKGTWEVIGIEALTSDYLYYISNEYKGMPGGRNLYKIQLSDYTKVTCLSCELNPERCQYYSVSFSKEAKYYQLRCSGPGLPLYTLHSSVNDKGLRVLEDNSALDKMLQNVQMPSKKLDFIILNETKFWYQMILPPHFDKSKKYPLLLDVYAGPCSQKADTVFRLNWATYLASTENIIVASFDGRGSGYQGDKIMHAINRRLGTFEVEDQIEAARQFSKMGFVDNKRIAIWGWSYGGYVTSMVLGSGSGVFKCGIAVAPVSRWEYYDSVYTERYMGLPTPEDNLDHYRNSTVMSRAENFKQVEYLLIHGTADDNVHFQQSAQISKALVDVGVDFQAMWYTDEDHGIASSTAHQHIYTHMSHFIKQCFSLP

Molecule	Ki (FAP [4])	FAP/DPP-4 Selectivity (DPP-4 [5])	Ki (DPP-4 [5])	Relative Hydrolysis rate by FAP (FAP [6])	Ki (FAP [7])	Relative Hydrolysis rate by DPP-4 (DPP-4 [8])	Ki (DPP-4 [9])	also measured
CC(C)[C@H](N)C(=O)N1CCC[C@H]1B(O)O [PT-100, Val-boro-Pro]								growth of syngeneic tumors [1]: slowed growth; direct cytotoxic effect on tumor cells (tumor cells): no direct cytotoxic effect
cyclohexylglycine-2-cyano-proline [CHCP]								effect of inhibitor concentration on cleavage of AP-AFC by FAP (FAP [2]): not inhibitor concentration dependent cleavage by FAP; effect of inhibitor concentration on cleavage of AP-AFC by DPP-4 (DPP-4 [3]): inhibitor concentration dependent cleavage by DPP-4
O=C(CNCc1ccccc1)N1CCCC1B(O)O (stereo not drawn) [N-benzyl-Gly-boroPro]	48 nM	1.2	56 nM					
CC(=O)NC(CO)C(=O)NCC(=O)N1CCCC1B(O)O (stereo not drawn) [N-Ac-Ser-Gly-boroPro]	16500 nM	>3	> 40000 nM					
CC(=O)NC(CO)C(=O)N1CCCC1C(=O)Nc1ccc2c(C)c(CC(N)=O)c(=O)oc2c1 [Ac-(D-Ser)]				3	200 nM	0	> 2000 nM	
CC(=O)NC(C)C(=O)N1CCCC1C(=O)Nc1ccc2c(C)c(CC(N)=O)c(=O)oc2c1 [Ac-(D-Ala)]				3	1000 nM	1	> 2000 nM	
NCCC(=O)O [β-Ala]				2	340 nM	1	2000 nM	
Cc1cccc(C)c1C(=O)NCC(=O)N1CCCC1B(O)O (stereo not drawn) [N-(2,6-dimethylbenzoyl)-Gly-boroPro]	25 nM	44	1100 nM					
CC(=O)NCC(=O)N1CCC[C@H]1C(=O)CCl [Ac-Gly-Pro-cmk, Acetyl-gly-pro-chloromethyl ketone] (Ac-Gly-Pro-CH2Cl)								inhibitor concentration-dependent inhibition of FAP (FAP [10]): almost complete; time course of FAP activity in the presence of inhibitor (FAP [10]): time-dependent; inhibition of DPP-4 (DPP-4 [11]): not inhibited; time course of DPP-4 activity in the presence of inhibitor (DPP-4 [11]): not time-dependent inhibited
CC(=O)NC(C(=O)NC(CO)C(=O)NCC(=O)N1CCCC1C(=O)CCl)C(C)O (stereo not drawn) [TSGP-cmk, acetyl-thre-ser-gly-pro-cmk] (Ac-TSGP-CH2Cl; configuration not given here)								inhibitor concentration-dependent inhibition of FAP (FAP [10]): almost complete; time course of FAP activity in the presence of inhibitor (FAP [10]): time-dependent; inhibition of DPP-4 (DPP-4 [11]): not substantially inhibited; time course of DPP-4 activity in the presence of inhibitor (DPP-4 [11]): not time-dependent inhibited

— patent publication US7399869B2, “Fibroblast activation protein inhibitor compounds and methods” (Genentech, Inc., priority 2005, dated 2008)
